Measured values as given in patent publication US8895761B2, “4-phenylpyrane-3,5-diones, 4-phenylthiopyrane-3,5-diones and 2-phenylcyclohexane-1,3,5-triones as herbicides” (Syngenta Limited, priority 2007, dated 2014).

Assays:
Format in all cases: in vivo
Lolium perenne (LOLPE) [1] = assay: Pre-emergence herbicidal glasshouse test, Lolium perenne; settings: 312 h, rate 250 g/ha, evaluated after 13 days, scale 100 = total damage to plant, 0 = no damage
Procedure: (§1) Seeds of a variety of test species were sown in standard soil in pots. After cultivation for one day (pre-emergence) or after 8 days cultivation (post-emergence) under controlled conditions in a glasshouse (at 24/16° C., day/night; 14 hours light; 65% humidity), the plants were sprayed with an aqueous spray solution derived from the formulation of the technical active ingredient in acetone/water (50:50) solution containing 0.5% Tween 20 (polyoxyethelyene sorbitan monolaurate, CAS RN 9005-64-5). The test plants were then grown in a glasshouse under controlled conditions in a glasshouse (at 24/16° C., day/night; 14 hours light; 65% humidity) and watered twice daily. After 13 days for pre and post-emergence, the test was evaluated ([…] to plant; 0=no damage to plant).
(§2) Setaria faberi (SETFA), Lolium perenne (LOLPE), Alopecurus myosuroides (ALOMY), Echinochloa crus-galli (ECHCG) and Avena fatua (AVEFA).

[2] = test system: Alopecurus myosuroides (ALOMY); assay: Pre-emergence herbicidal glasshouse test, Alopecurus myosuroides; settings: Alopecurus myosuroides, 312 h, rate 250 g/ha, evaluated after 13 days, scale 100 = total damage to plant, 0 = no damage
Procedure: as §1, §2

[3] = test system: Echinochloa crus-galli (ECHCG); assay: Pre-emergence herbicidal glasshouse test, Echinochloa crus-galli; settings: Echinochloa crus-galli, 312 h, rate 250 g/ha, evaluated after 13 days, scale 100 = total damage to plant, 0 = no damage
Procedure: as §1, §2

Avena fatua (AVEFA) [4] = assay: Pre-emergence herbicidal glasshouse test, Avena fatua; settings: Avena fatua, 312 h, rate 250 g/ha, evaluated after 13 days, scale 100 = total damage to plant, 0 = no damage
Procedure: as §1, §2

Lolium perenne (LOLPE) [5] = assay: Post-emergence herbicidal glasshouse test, Lolium perenne; settings: 312 h, rate 250 g/ha, evaluated after 13 days, scale 100 = total damage to plant, 0 = no damage
Procedure: as §1, §2

[6] = test system: Alopecurus myosuroides (ALOMY); assay: Post-emergence herbicidal glasshouse test, Alopecurus myosuroides; settings: Alopecurus myosuroides, 312 h, rate 250 g/ha, evaluated after 13 days, scale 100 = total damage to plant, 0 = no damage
Procedure: as §1, §2

[7] = test system: Echinochloa crus-galli (ECHCG); assay: Post-emergence herbicidal glasshouse test, Echinochloa crus-galli; settings: Echinochloa crus-galli, 312 h, rate 250 g/ha, evaluated after 13 days, scale 100 = total damage to plant, 0 = no damage
Procedure: as §1, §2

Avena fatua (AVEFA) [8] = assay: Post-emergence herbicidal glasshouse test, Avena fatua; settings: Avena fatua, 312 h, rate 250 g/ha, evaluated after 13 days, scale 100 = total damage to plant, 0 = no damage
Procedure: as §1, §2

Row | Structure (SMILES) | pest or weed control at 250 g/ha (Lolium perenne (LOLPE) [1]) [%] | pest or weed control at 250 g/ha [2] [%] | pest or weed control at 250 g/ha [3] [%] | pest or weed control at 250 g/ha (Avena fatua (AVEFA) [4]) [%] | pest or weed control at 250 g/ha (Lolium perenne (LOLPE) [5]) [%] | pest or weed control at 250 g/ha [6] [%] | pest or weed control at 250 g/ha [7] [%] | pest or weed control at 250 g/ha (Avena fatua (AVEFA) [8]) [%]
1 | CCc1cc(-c2cccc(Cl)c2)ccc1C1=C(O)C(C)(C)OC(C)(C)C1=O [Compound A-95] | 30 | 10 | 30 | 0 | 80 | 80 | 80 | 50
2 | CCc1cc(-c2ccccc2)ccc1C1=C(O)C(C)(C)OC(C)(C)C1=O [Compound A-96] | 0 | 0 | 20 | 10 | 80 | 80 | 90 | 10
3 | CCc1cc(-c2cc(Cl)cc(Cl)c2)ccc1C1=C(O)C(C)(C)OC(C)(C)C1=O [Compound A-99] | 60 | 10 | 30 | 0 | 90 | 90 | 100 | 90
4 | CCc1cc(-c2ccc(F)cc2)ccc1C1=C(O)C(C)(COC)OC(C)(C)C1=O (stereo not drawn) [Compound A-101] | 90 | 70 | 50 | 50 | 100 | 100 | 100 | 100
5 | CCc1cc(-c2ccc(F)cc2)ccc1C1=C(O)C(C)(CC)OC(C)(C)C1=O (stereo not drawn) [Compound A-102] | 70 | 60 | 30 | 10 | 90 | 100 | 90 | 80
6 | CCc1cc(-c2ccc(F)cc2)ccc1C1=C(O)C2(CCCC2)OC(C)(C)C1=O [Compound A-103] | 20 | 20 | 20 | 0 | 60 | 60 | 90 | 10
7 | CCc1cc(-c2ccc(F)cc2)ccc1C1=C(O)C(C)(CC)OC(C)(CC)C1=O (stereo not drawn) [Compound A-104] | 60 | 50 | 40 | 0 | 60 | 90 | 90 | 10
8 | CCc1cc(-c2ccc(F)cc2)ccc1C1=C(O)C(C)OC(C)(C)C1=O (stereo not drawn) [Compound A-105] | 40 | 40 | 20 | 0 | 90 | 80 | 90 | 30
9 | CCc1cc(-c2ccc(F)c(OC)c2)ccc1C1=C(O)C(C)(COC)OC(C)(C)C1=O (stereo not drawn) [Compound A-112] | 90 | 80 | 100 | 80 | 90 | 80 | 100 | 80
10 | CCc1cc(-c2ccc(F)c(F)c2)ccc1C1=C(O)C(C)(COC)OC(C)(C)C1=O (stereo not drawn) [Compound A-113] | 100 | 100 | 100 | 90 | 100 | 100 | 100 | 90
11 | CCc1cc(-c2cc(F)c(F)c(F)c2)ccc1C1=C(O)C(C)(COC)OC(C)(C)C1=O (stereo not drawn) [Compound A-114] | 100 | 90 | 100 | 90 | 100 | 90 | 100 | 90
12 | CCc1cc(-c2c(F)cc(F)cc2F)ccc1C1=C(O)C(C)(COC)OC(C)(C)C1=O (stereo not drawn) [Compound A-116] | 70 | 90 | 100 | 60 | 70 | 90 | 100 | 60
13 | CCc1cc(-c2ccc(F)c(F)c2F)ccc1C1=C(O)C(C)(COC)OC(C)(C)C1=O (stereo not drawn) [Compound A-117] | 60 | 70 | 90 | 40 | 80 | 90 | 100 | 80
14 | CCc1cc(-c2ccc(F)c(OC)c2)ccc1C1=C(O)C(C)(CC)OC(C)(C)C1=O (stereo not drawn) [Compound A-118] | 90 | 20 | 40 | 0 | 80 | 60 | 90 | 80
15 | CCc1cc(-c2ccc(F)c(F)c2)ccc1C1=C(O)C(C)(CC)OC(C)(C)C1=O (stereo not drawn) [Compound A-119] | 60 | 40 | 30 | 10 | 90 | 100 | 100 | 90
16 | CCc1cc(-c2cc(F)c(F)c(F)c2)ccc1C1=C(O)C(C)(CC)OC(C)(C)C1=O (stereo not drawn) [Compound A-120] | 90 | 60 | 70 | 40 | 100 | 100 | 100 | 100
17 | CCc1cc(-c2cc(F)c(F)cc2F)ccc1C1=C(O)C(C)(CC)OC(C)(C)C1=O (stereo not drawn) [Compound A-122] | 0 | 20 | 10 | 0 | 70 | 90 | 70 | 30
18 | CCc1cc(-c2ccc(F)c(F)c2F)ccc1C1=C(O)C(C)(CC)OC(C)(C)C1=O (stereo not drawn) [Compound A-123] | 0 | 0 | 0 | 0 | 80 | 80 | 90 | 80
